# According to the METLIN SMRT retention time set (Domingo-Almenara et al. 2019):
# Test: gradient 5% acetonitrile 3 min, to 50% in 2 min, to 85% in 15 min, held 3 min, 100 µL/min
# Details: column: Zorbax Extend-C18 2.1 x 50 mm; eluents: water / acetonitrile, 0.1% formic acid
# Method in brief: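 In both positive and negative ionization mode, a quadrupole time-of-flight mass spectrometer coupled to HPLC analyzed pure standards run in mixtures of ~100 molecules. The Zorbax Extend-C18 column (2.1 × 50 mm, 1.8 μm) was operated at 100 μL/min with water and acetonitrile, each containing 0.1% formic acid. The dead volume was 40 μL and the dwell volume 900 μL. Retention time came from adduct peaks that were computationally picked and individually inspected by hand.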
row,Structure (SMILES),RP-LC retention time [s]
1,Cn1nccc1C(=O)NCc1ccc2c(c1)CCN2C(=O)c1ccccc1,759
2,CCN1C=C(C(=O)OCc2cccc(C)c2)C(C)=NS1(=O)=O,1030
3,Brc1ccc2nc(N3CCNCC3)sc2c1,557
4,Cc1ccc(C)c(NS(=O)(=O)c2ccc(-c3nnc(C4CCC4)o3)o2)c1,960
5,Cc1cccc(-n2c(N3CCCC(C(=O)NCc4ccccc4)C3)nc3ccsc3c2=O)c1 (stereo unspecified),880
6,Cc1nc(-c2cc3cccc(C)c3nc2NCCc2ccccn2)no1,764
7,Cc1ccccc1CNS(=O)(=O)c1cc(-c2[nH]ncc2C(=O)N(C)C)oc1C,701
8,CC(=O)OCC(=O)[C@@]12N=C(C)O[C@@H]1C[C@H]1[C@@H]3CCC4=CC(=O)C=C[C@]4(C)[C@H]3[C@@H](O)C[C@@]12C,862
9,O=C(Nc1c(-c2ccc(F)cc2)nc2ccccn12)c1cccc([N+](=O)[O-])c1,684
10,O=C1COc2ccccc2N1Cc1nc(-c2ccc(Cl)cc2)no1,1070
11,Cc1cccc(NC(=O)Nc2c(-c3ccc(F)cc3)nc3ccccn23)c1C,697
12,Cc1ccc(NC(=O)CN2C(=O)C3CCCCN3c3ccc(S(=O)(=O)N4CCCCC4)cc32)cc1 (stereo unspecified),987
13,Cc1nsc2ncc(C(=O)N3CCOCC3)c(N3CCC(C(=O)Nc4cccc(Cl)c4)CC3)c12,848
14,COc1ccc(-c2nc(-c3ccc4c(c3)ncn4CCC(=O)N3CCCC3)no2)cc1,742
15,O=C(Nc1ccccc1)N[C@H]1C[C@H](C(=O)O)Nc2cc(Cl)cc(Cl)c21,799
16,COc1ccc(-c2noc(Cn3c(=O)n(CC4CCCO4)c(=O)c4ccccc43)n2)cc1OC (stereo unspecified),828
17,CC(C(=O)N1CCN(c2cc(-c3ccc(Cl)cc3)[nH]n2)CC1)c1ccccc1 (stereo unspecified),921
18,CS(=O)(=O)N1CCC(OC2CCN(C(=O)NCc3ccc(F)cc3)CC2)CC1,730
19,O=C(NCc1ccc2c(c1)OCO2)C1CCCN(c2cnc3nccnc3c2)C1 (stereo unspecified),666
20,Cc1cccc(NC(=O)CN2C(=O)CC(C)S(=O)(=O)c3ccccc32)c1C (stereo unspecified),789
21,CCOC(=O)c1c(C)oc2nc(C)nc(NCCCN3CCN(c4ccccc4OC)CC3)c12,596
22,O=C1CCCN1CCCNc1ccc2nnc(CCC(=O)N3CCN(c4ccccn4)CC3)n2n1,557

row,Structure (SMILES),RP-LC retention time [s]
1,CNc1ncnc2c1cnn2-c1ccc(F)cc1,657
2,Cc1ccc(Oc2nccnc2SCC(=O)Nc2cc(C)cc(C)c2)cc1,1200
3,O=C(NCCn1nc(-c2cccs2)ccc1=O)c1ccc(=O)n(Cc2ccccc2)n1,678
4,Cc1c(Cl)cccc1NC(=O)C1CCN(c2c(C(=O)N3CCC(C)CC3)cnc3snc(C)c23)CC1,1040
5,Cc1nc(-c2cc(S(=O)(=O)NCc3ccc(OC(C)C)cc3)c(C)s2)cs1,1080
6,Cc1ccccc1OCc1nc(-c2ccc3c(c2)oc(=O)n3C(C)C)no1,1160
7,CC(CCc1ccccc1)NC(=O)c1ccc(-n2cccn2)nc1 (stereo unspecified),858
8,O=C(NCc1ccc(F)cc1F)C1CCN(c2cc(N3CCOCC3)ncn2)CC1,627
9,O=C(c1cn2cc(Cl)ccc2n1)N1CCN(c2ccccc2)CC1,804
10,Cn1nc(N2CCC(NC(=O)CCC3CCCC3)C2)ccc1=O (stereo unspecified),716
11,C=CCn1nnc(NCc2ccc(-c3cc(Cl)ccc3Cl)o2)n1,1130
12,O=C1c2cccc(NCCCNCCO)c2C(=O)c2cccc(NCCCNCCO)c21,583
13,Cc1cc(NCc2ccccn2)nc(-n2cc([N+](=O)[O-])cn2)n1,564
14,CCN(CC)S(=O)(=O)c1ccc2c(c1)N(CC(=O)NC1CCCCCC1)C(=O)C1CCCCN21 (stereo unspecified),1050
15,COc1ccc2cc(C(=O)N3CCCN(c4cc(=O)n(C)c(=O)n4C)CC3)[nH]c2c1,688
16,O=C(NCCN1CCOCC1)c1cccc(Nc2c(-c3ccccc3)nc3cnccn23)c1,589
17,CCOC(=O)CN1N=C(C(=O)N2CCC(C)CC2)S(=O)(=O)c2ccccc21,888
18,COc1ccc(OC)c(NC(=O)Cn2c(C(F)(F)F)nc3cc4c(cc32)OCCO4)c1,881
19,Cc1ccc(-c2[nH]ncc2CNS(=O)(=O)c2cccc3nsnc23)cc1C,802
20,CC(C)C(=O)Oc1ccc(CO)cc1[C@H](CCN(C(C)C)C(C)C)c1ccccc1,830
21,O=C(CCn1cnc2cc(S(=O)(=O)N3CCCC3)ccc21)N1CCN(c2ccccn2)CC1,576
22,CCOc1ccc(-c2noc(Cn3c(=O)n(-c4ccc(F)cc4)c(=O)c4sccc43)n2)cc1OC,940

row,Structure (SMILES),RP-LC retention time [s]
1,Cc1ccc(C)c(C(=O)NCC(C)(O)c2ccccc2)c1 (stereo unspecified),759
2,CC1(C(=O)NC2CCCCCCC2)CN(S(C)(=O)=O)CC(=O)N1c1ccc(F)cc1 (stereo unspecified),884
3,C[C@H]1C2Cc3ccc(O)cc3[C@@]1(C)CCN2CC1CC1,669
4,Cc1cccc(-c2noc(C3CCCN3C(=O)NCC3CCCO3)n2)c1 (stereo unspecified),818
5,Cc1nn(-c2ccc(N3CCCCC3)nn2)c(C)c1CCC(=O)NCCc1ccco1,660
6,Cc1c(F)cccc1NC(=O)N1CCCC1c1nncn1-c1ccccc1 (stereo unspecified),744
7,COc1cccc(CNC(=O)Cn2nc3c(Oc4ccc(Cl)cc4)nccn3c2=O)c1,849
8,O=C(CSc1nnc(N2CCN(C(=O)c3cccs3)CC2)s1)NCc1ccco1,642
9,CC1=C(c2ccc(F)cc2)S(=O)(=O)N=C1N1CCCN(C(=O)C2CCCC2)CC1,828
10,Cn1cc(OCc2ccccc2)c(=O)cc1C(=O)N1CCN(c2ccccn2)CC1,538
11,COc1ccc(CC(=O)N(C)C2CCN(c3nccnc3OC)C2)cc1 (stereo unspecified),684
12,Cc1c(C(=O)NCC2CCCO2)cnn1-c1cc(-c2nc(C3CC3)no2)ccn1 (stereo unspecified),837
13,COc1ccc(CC2C(=O)Nc3ccccc32)cc1Cl (stereo unspecified),832
14,Cc1ccc(F)c(NC(=O)C2CC(=O)N(c3ccc4c(c3)CCN4C(=O)C3CC3)C2)c1 (stereo unspecified),799
15,Clc1cccc(CN2CCc3nc(N4CCN(c5ccccc5)CC4)ncc3C2)c1,775
16,Cc1ncsc1CN1CCC(c2nc(-c3ccc(F)cc3)n[nH]2)CC1,918
17,CN(C)c1nc2cc(C(=O)N3CCC4(CC3)OCCO4)sc2n1-c1ccc(F)cc1,654
18,O=C(Nc1ccc2c(c1)OCO2)N(Cc1ccsc1)CC(F)(F)F,858
19,Cc1ccc(NC(=O)CN2CCc3[nH]c4c(C)c(Cl)ccc4c(=O)c3C2)c(Cl)c1,741
20,COc1cc(-c2nc3ncccn3c2NCc2ccc(Cl)cc2)ccc1OC(C)C,808
21,C=CCN1C(=O)COc2ccc(-c3nc(NC(=O)c4ccccc4C)sc3C)cc21,1050
22,Cc1ccccc1S(=O)(=O)N1CCCC(C)(C(=O)NCc2ccccc2)C1 (stereo unspecified),944

row,Structure (SMILES),RP-LC retention time [s]
1,C=CCN1CC(c2nc3ccccc3n2CC(O)COc2cccc(C)c2)CC1=O (stereo unspecified),721
2,COc1ccccc1CCC(=O)NC(C(=O)Nc1nc2ccccc2[nH]1)C(C)C (stereo unspecified),721
3,COc1cccc(CNC(=O)c2ccc3c(c2)nc2n3CCN(C3CCCCC3)C2=O)c1,774
4,O=S(=O)(c1cccnc1)N1CC[C@@H]2COCCN(Cc3cccnc3)[C@@H]2C1,577
5,CCN(CC)S(=O)(=O)c1ccc2c(c1)N(CC(=O)NCc1cccnc1)C(=O)C1CCCCN21 (stereo unspecified),653
6,Cc1nc(-c2noc(-c3ccc(F)cc3)n2)cn1CC(=O)Nc1ccc(Cl)cc1,922
7,CCc1cc(=O)n(CC(=O)NC(C)CCc2ccccc2)c(-c2ccccc2)n1 (stereo unspecified),1190
8,CCc1ccc(NC(=O)C2CCCN2S(=O)(=O)c2ccc3c(c2)NC(=O)CO3)cc1 (stereo unspecified),859
9,COc1cccc(C2CC(c3ccc(F)cc3)=NC3(CCN(C(C)C)CC3)N2)c1O (stereo unspecified),608
10,O=C(C1CCN(c2cnc(N3CCCC3)nc2)CC1)N1CCOCC1,587
11,O=C(c1cccc(F)c1)N1CCC[C@H]1c1nc(-c2ccccc2)n[nH]1,685
12,CCCn1nnc2cc(S(=O)(=O)N3CCCC(C(=O)N4CCN(c5ccccn5)CC4)C3)ccc21 (stereo unspecified),652
13,N#Cc1ccc(S(=O)(=O)N2CCC(Cc3nc(-c4ccncc4)n[nH]3)C2)cc1 (stereo unspecified),620
14,CCc1nn2c(CNC(=O)c3ccc(C)cc3)c(-c3ccccc3)nc2s1,950
15,CCc1ccc(C(C)NC(=O)C2CCN(c3cncnc3N3CCOCC3)CC2)cc1 (stereo unspecified),697
16,CC1(C(=O)NCc2ccc(Cl)cc2)CN(S(C)(=O)=O)CC(=O)N1Cc1ccc(F)cc1 (stereo unspecified),814
17,COC(=O)c1cccc(C(=O)NC2(c3nc(C)no3)CCCCC2)c1,849
18,CCC1CN(C(=O)N2CCC(C(=O)NCCN3CCCC3)CC2)c2cc(C)ccc2O1 (stereo unspecified),649
19,O=S(=O)(Cc1ccccc1)N1CCC[C@H]1c1nc(-c2ccc(F)cc2)n[nH]1,819
20,O=C1CCCC(=O)N1CCS(=O)(=O)N1CCC(c2nnc(-c3ccco3)s2)CC1,671
